According to patent US20230085307A1, “PYRIDAZINONE COMPOUND AND HERBICIDE” (NISSAN CHEMICAL CORPORATION, priority 2019, published 2023):

The compounds below were run on Japanese bulrush (assay: Test Example 1: herbicidal activity, application before weed generation under submerged conditions (Table 16, symbol B)). Settings: amount of applied herbicide 320 g/ha.
Type: in vivo, Japanese bulrush (Schoenoplectus juncoides)
How it was run: (§1)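 Submerged Wagner pots (alluvial soil, 4 cm water) sown with weed seeds and planted with 2.5-leaf rice seedlings; emulsifiable concentrate diluted in water applied to water surface on sowing day. Held in greenhouse at 25-30 °C; injury scored 0-5 by herbicidal rate after three weeks.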
In the case of `CCOc1cc(F)ccc1-c1sc2cc(C)ccc2c1-c1c(O)c(C)nn(C)c1=O` [3-057], the “Herbicidal effect, B: Japanese bulrush” value is reported as 5 (Herbicidal rate of 90% or more (almost completely withered)).
In the case of `COc1ccccc1-c1sc2cc(OC3CCCC3)ccc2c1-c1c(O)c(C)nn(C)c1=O` [3-109], the “Herbicidal effect, B: Japanese bulrush” value is reported as 5 (Herbicidal rate of 90% or more (almost completely withered)).

These compounds were tested on lambsquarters (assay: Test Example 5: herbicidal effect by foliage application, plastic box (Table 20, symbol O)). Settings: foliage application, 320 g/ha, three weeks after application.
Type: in vivo, lambsquarters (Chenopodium album)
How it was run: (§2)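 Plants sown in sterilized diluvial soil and grown 14 days in a greenhouse at 25° C to 30° C, then sprayed on the foliage with the compound's emulsion diluted in water to a predetermined herbicide amount. Injury to weeds and crops scored three weeks after application on a visual rating scale.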
`CCOc1cc(F)ccc1-c1sc2cc(C)ccc2c1-c1c(O)c(C)nn(C)c1=O` [3-057] was tested, and the “O: lambsquarters, herbicidal effect grade” value was 5 (Herbicidal rate of 90% or more (almost completely withered)).
`COc1ccccc1-c1sc2cc(OC3CCCC3)ccc2c1-c1c(O)c(C)nn(C)c1=O` [3-109] was tested, and the “O: lambsquarters, herbicidal effect grade” value was 3 (Herbicidal rate of 40% or more and less than 70%).

These compounds were tested on barnyard grass (assay: Test Example 3: herbicidal effect by foliage application, Wagner pot (Table 18, symbol H)). Settings: 320 g/ha.
Type: in vivo, barnyard grass (Echinochloa crus-galli)
How it was run: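 Plants were sown in alluvial soil held under 0.1–0.5 cm standing water and grown 14 days in a greenhouse at 25–30 °C. An emulsifiable formulation, water-diluted to the set dose, was then sprayed onto the foliage, and effects were scored three weeks later using previously defined criteria.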
With `CCOc1cc(F)ccc1-c1sc2cc(C)ccc2c1-c1c(O)c(C)nn(C)c1=O` [3-057] the “herbicidal effect on barnyard grass (H)” value was 5 (Herbicidal rate of 90% or more (almost completely withered)).
`COc1ccccc1-c1sc2cc(OC3CCCC3)ccc2c1-c1c(O)c(C)nn(C)c1=O` [3-109] was tested, and the “herbicidal effect on barnyard grass (H)” value was 3 (Herbicidal rate of 40% or more and less than 70%).

Each compound was assayed on southern crabgrass (assay: Test Example 4: herbicidal effect by soil treatment (Table 19, symbol F)). Settings: amount of applied herbicide 320 g/ha.
Type: in vivo, southern crabgrass (Digitaria ciliaris)
How it was run: (§3)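 Seeds were sown in sterilized diluvial soil and covered with about 1.5 cm of soil. An emulsion formulation diluted with water to a predetermined herbicide amount was sprayed evenly onto the soil surface. Plants grew in a greenhouse at 25° C. to 30° C., and the effect was scored three weeks after application using criteria from an earlier test.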
With `CCOc1cc(F)ccc1-c1sc2cc(C)ccc2c1-c1c(O)c(C)nn(C)c1=O` [3-057] the “F: southern crabgrass, herbicidal effect grade” value (“F: southern crabgrass” for short) was 5 (Herbicidal rate of 90% or more (almost completely withered)).
In the case of `COc1ccccc1-c1sc2cc(OC3CCCC3)ccc2c1-c1c(O)c(C)nn(C)c1=O` [3-109], the “F: southern crabgrass” value is reported as 2 (Herbicidal rate of 20% or more and less than 40%).

Each compound was assayed on green foxtail (assay: Test Example 5: herbicidal effect by foliage application, plastic box (Table 20, symbol G)). Settings: foliage application, 320 g/ha, three weeks after application.
Type: in vivo, green foxtail (Setaria viridis)
How it was run: as §2
In the case of `CCOc1cc(F)ccc1-c1sc2cc(C)ccc2c1-c1c(O)c(C)nn(C)c1=O` [3-057], the “G: green foxtail, herbicidal effect grade” value is reported as 5 (Herbicidal rate of 90% or more (almost completely withered)).
For `COc1ccccc1-c1sc2cc(OC3CCCC3)ccc2c1-c1c(O)c(C)nn(C)c1=O` [3-109], the “G: green foxtail, herbicidal effect grade” value was 5 (Herbicidal rate of 90% or more (almost completely withered)).

What follows are compounds tested on oval-leafed pondweed (assay: Test Example 1: herbicidal activity, application before weed generation under submerged conditions (Table 16, symbol C)). Settings: amount of applied herbicide 320 g/ha.
Type: in vivo, oval-leafed pondweed (Monochoria vaginalis)
How it was run: as §1
With `CCOc1cc(F)ccc1-c1sc2cc(C)ccc2c1-c1c(O)c(C)nn(C)c1=O` [3-057] the “Herbicidal effect, C: oval-leafed pondweed” value was 5 (Herbicidal rate of 90% or more (almost completely withered)).
In the case of `COc1ccccc1-c1sc2cc(OC3CCCC3)ccc2c1-c1c(O)c(C)nn(C)c1=O` [3-109], the “Herbicidal effect, C: oval-leafed pondweed” value is reported as 5 (Herbicidal rate of 90% or more (almost completely withered)).

These compounds were tested on barnyard grass (assay: Test Example 4: herbicidal effect by soil treatment (Table 19, symbol H)). Settings: amount of applied herbicide 320 g/ha.
Type: in vivo, barnyard grass (Echinochloa crus-galli)
How it was run: as §3
For `CCOc1cc(F)ccc1-c1sc2cc(C)ccc2c1-c1c(O)c(C)nn(C)c1=O` [3-057], the “H: barnyard grass, herbicidal effect grade” value was 4 (Herbicidal rate of 70% or more and less than 90%).
In the case of `COc1ccccc1-c1sc2cc(OC3CCCC3)ccc2c1-c1c(O)c(C)nn(C)c1=O` [3-109], the “H: barnyard grass, herbicidal effect grade” value is reported as 1 (Herbicidal rate of 5% or more and less than 20%).

These compounds were tested on blackgrass (assay: Test Example 4: herbicidal effect by soil treatment (Table 19, symbol J)). Settings: amount of applied herbicide 320 g/ha.
Type: in vivo, blackgrass (Alopecurus myosuroides)
How it was run: as §3
With `CCOc1cc(F)ccc1-c1sc2cc(C)ccc2c1-c1c(O)c(C)nn(C)c1=O` [3-057] the “J: blackgrass, herbicidal effect grade” value was 4 (Herbicidal rate of 70% or more and less than 90%).
With `COc1ccccc1-c1sc2cc(OC3CCCC3)ccc2c1-c1c(O)c(C)nn(C)c1=O` [3-109] the “J: blackgrass, herbicidal effect grade” value was 0 (Herbicidal rate of 5% or less (almost no effect)).

The compounds below were run on chickweed (assay: Test Example 4: herbicidal effect by soil treatment (Table 19, symbol P)). Settings: amount of applied herbicide 320 g/ha.
Type: in vivo, common chickweed (Stellaria media)
How it was run: as §3
In the case of `CCOc1cc(F)ccc1-c1sc2cc(C)ccc2c1-c1c(O)c(C)nn(C)c1=O` [3-057], the “P: chickweed, herbicidal effect grade” value is reported as 5 (Herbicidal rate of 90% or more (almost completely withered)).
With `COc1ccccc1-c1sc2cc(OC3CCCC3)ccc2c1-c1c(O)c(C)nn(C)c1=O` [3-109] the “P: chickweed, herbicidal effect grade” value was 1 (Herbicidal rate of 5% or more and less than 20%).

What follows are compounds tested on Japanese bulrush (assay: Test Example 2: herbicidal activity, application during weed generation under submerged conditions (Table 17, symbol B)). Settings: AAH 320 g/ha; application during weed generation, submerged conditions.
Type: in vivo, Japanese bulrush (Schoenoplectus juncoides)
How it was run: (§4)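 Mixed weed seedlings in alluvial soil under a 4 cm water layer, greenhouse-grown at 25–30° C. Compound given as a diluted emulsion into the floodwater at the 1–2 leaf stage; response graded after three weeks.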
For `CCOc1cc(F)ccc1-c1sc2cc(C)ccc2c1-c1c(O)c(C)nn(C)c1=O` [3-057], the “herbicidal effect rating, B: Japanese bulrush” value was 4 (Herbicidal rate of 70% or more and less than 90%).
`COc1ccccc1-c1sc2cc(OC3CCCC3)ccc2c1-c1c(O)c(C)nn(C)c1=O` [3-109] was tested, and the “herbicidal effect rating, B: Japanese bulrush” value was 3 (Herbicidal rate of 40% or more and less than 70%).

What follows are compounds tested on late watergrass (assay: Test Example 2: herbicidal activity, application during weed generation under submerged conditions (Table 17, symbol A)). Settings: AAH 320 g/ha; application during weed generation, submerged conditions.
Type: in vivo, late watergrass (Echinochloa oryzicola)
How it was run: as §4
`CCOc1cc(F)ccc1-c1sc2cc(C)ccc2c1-c1c(O)c(C)nn(C)c1=O` [3-057] was tested, and the “herbicidal effect rating, A: late watergrass” value was 4 (Herbicidal rate of 70% or more and less than 90%).
`COc1ccccc1-c1sc2cc(OC3CCCC3)ccc2c1-c1c(O)c(C)nn(C)c1=O` [3-109] was tested, and the “herbicidal effect rating, A: late watergrass” value was 0 (Herbicidal rate of 5% or less (almost no effect)).

These compounds were tested on persian speedwell (assay: Test Example 5: herbicidal effect by foliage application, plastic box (Table 20, symbol R)). Settings: foliage application, 320 g/ha, three weeks after application.
Type: in vivo, Persian speedwell (Veronica persica)
How it was run: as §2
`CCOc1cc(F)ccc1-c1sc2cc(C)ccc2c1-c1c(O)c(C)nn(C)c1=O` [3-057] was tested, and the “R: persian speedwell, herbicidal effect grade” value was 5 (Herbicidal rate of 90% or more (almost completely withered)).
In the case of `COc1ccccc1-c1sc2cc(OC3CCCC3)ccc2c1-c1c(O)c(C)nn(C)c1=O` [3-109], the “R: persian speedwell, herbicidal effect grade” value is reported as 5 (Herbicidal rate of 90% or more (almost completely withered)).

Each compound was assayed on wild oat (assay: Test Example 5: herbicidal effect by foliage application, plastic box (Table 20, symbol I)). Settings: foliage application, 320 g/ha, three weeks after application.
Type: in vivo, wild oat (Avena fatua)
How it was run: as §2
With `CCOc1cc(F)ccc1-c1sc2cc(C)ccc2c1-c1c(O)c(C)nn(C)c1=O` [3-057] the “I: wild oat, herbicidal effect grade” value was 5 (Herbicidal rate of 90% or more (almost completely withered)).
`COc1ccccc1-c1sc2cc(OC3CCCC3)ccc2c1-c1c(O)c(C)nn(C)c1=O` [3-109] was tested, and the “I: wild oat, herbicidal effect grade” value was 0 (Herbicidal rate of 5% or less (almost no effect)).

These compounds were tested on redroot pigweed (assay: Test Example 4: herbicidal effect by soil treatment (Table 19, symbol N)). Settings: amount of applied herbicide 320 g/ha.
Type: in vivo, redroot pigweed (Amaranthus retroflexus)
How it was run: as §3
With `CCOc1cc(F)ccc1-c1sc2cc(C)ccc2c1-c1c(O)c(C)nn(C)c1=O` [3-057] the “N: redroot pigweed, herbicidal effect grade” value (from here on “N: redroot pigweed”) was 5 (Herbicidal rate of 90% or more (almost completely withered)).
In the case of `COc1ccccc1-c1sc2cc(OC3CCCC3)ccc2c1-c1c(O)c(C)nn(C)c1=O` [3-109], the “N: redroot pigweed” value is reported as 5 (Herbicidal rate of 90% or more (almost completely withered)).

What follows are compounds tested on southern crabgrass (assay: Test Example 5: herbicidal effect by foliage application, plastic box (Table 20, symbol F)). Settings: foliage application, 320 g/ha, three weeks after application.
Type: in vivo, southern crabgrass (Digitaria ciliaris)
How it was run: as §2
In the case of `CCOc1cc(F)ccc1-c1sc2cc(C)ccc2c1-c1c(O)c(C)nn(C)c1=O` [3-057], the “F: southern crabgrass” value is reported as 5 (Herbicidal rate of 90% or more (almost completely withered)).
With `COc1ccccc1-c1sc2cc(OC3CCCC3)ccc2c1-c1c(O)c(C)nn(C)c1=O` [3-109] the “F: southern crabgrass” value was 3 (Herbicidal rate of 40% or more and less than 70%).

What follows are compounds tested on redroot pigweed (assay: Test Example 5: herbicidal effect by foliage application, plastic box (Table 20, symbol N)). Settings: foliage application, 320 g/ha, three weeks after application.
Type: in vivo, redroot pigweed (Amaranthus retroflexus)
How it was run: as §2
For `CCOc1cc(F)ccc1-c1sc2cc(C)ccc2c1-c1c(O)c(C)nn(C)c1=O` [3-057], the “N: redroot pigweed” value was 5 (Herbicidal rate of 90% or more (almost completely withered)).
With `COc1ccccc1-c1sc2cc(OC3CCCC3)ccc2c1-c1c(O)c(C)nn(C)c1=O` [3-109] the “N: redroot pigweed” value was 5 (Herbicidal rate of 90% or more (almost completely withered)).

Each compound was assayed on blackgrass (assay: Test Example 5: herbicidal effect by foliage application, plastic box (Table 20, symbol J)). Settings: foliage application, 320 g/ha, three weeks after application.
Type: in vivo, blackgrass (Alopecurus myosuroides)
How it was run: as §2
In the case of `CCOc1cc(F)ccc1-c1sc2cc(C)ccc2c1-c1c(O)c(C)nn(C)c1=O` [3-057], the “J: blackgrass, herbicidal effect grade” value is reported as 5 (Herbicidal rate of 90% or more (almost completely withered)).
With `COc1ccccc1-c1sc2cc(OC3CCCC3)ccc2c1-c1c(O)c(C)nn(C)c1=O` [3-109] the “J: blackgrass, herbicidal effect grade” value was 2 (Herbicidal rate of 20% or more and less than 40%).
